In test [1] the test system is MCF-7 cells (with PI3Kα E545K mutation). The test is described as follows: In vitro inhibition of MCF-7 cell proliferation (CellTiter-Lumi). In kind it is cell-based. Conditions: Homo sapiens, MCF7, 144 h, class symbols, read-out: Inhibitory activity against MCF-7 cells (IC50), class symbols. The method in brief: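 Growth IC50 derived from ATP luminescence (CellTiter-Lumi) after 144 h exposure of MCF-7 cells carrying PI3Kα E545K, plated 2000 cells/well and dosed with serial dilutions one day after seeding.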

The subject of test [2] is HCC1954 cells (with PI3Kα H1047R mutation). The test is described as follows: In vitro inhibition of HCC1954 cell proliferation (CellTiter-Lumi). In kind it is cell-based. The following applies: Homo sapiens, HCC1954, 144 h, HCC1954 cells, 144 h, CellTiter-Lumi; class symbols; read-out: Inhibitory activity against HCC1954 cells (IC50), class symbols. The method, then: Assay for In Vitro Inhibition of HCC1954 Cell Proliferation by Compounds of the Present Disclosure
The growth of the cells was evaluated, and the IC50 for the inhibition of cell growth by the compounds was calculated.

As a reminder, the IC50 is the concentration that inhibits the measured activity by half. `CC(C)(N)C=C(C#N)C(=O)Nc1ccc(N2CC(N3CCN(c4ccc5c(c4)-c4nc(N6C(=O)OC[C@H]6C(F)F)cn4CCO5)CC3)C2)nn1` [Compound 297]: the IC50 in test [1] and in test [2] was less than 50 nM throughout.
Take `CNC(C)(C)C=C(C#N)C(=O)Nc1ccc(N2CC(N3CCN(c4ccc5c(c4)-c4nc(N6C(=O)OC[C@H]6C(F)F)cn4CCO5)CC3)C2)cn1` [Compound 298]: the concentration for half-maximal inhibition (IC50) in test [1] and in test [2] was less than 50 nM in each case.
Turning to `CNC(C)(C)C=C(C#N)C(=O)Nc1ccc(N2CC(N3CCN(c4ccc5c(c4)-c4nc(N6C(=O)OC[C@H]6C(F)F)cn4CCO5)CC3)C2)nn1` [Compound 299], the 50% inhibitory concentration (IC50) in test [1] and in test [2] was less than 50 nM each time.
On to `CNC(C)(C)C=C(C#N)C(=O)Nc1ncc(N2CC(N3CCN(c4ccc5c(c4)-c4nc(N6C(=O)OC[C@H]6C(F)F)cn4CCO5)CC3)C2)cn1` [Compound 300], for which the IC50 in test [1] and in test [2] was less than 50 nM in each case.
On to `COCCNC(C)(C)C=C(C#N)C(=O)Nc1ccc(N2CC(N3CCN(c4ccc5c(c4)-c4nc(N6C(=O)OC[C@H]6C(F)F)cn4CCO5)CC3)C2)cn1` [Compound 301], for which the IC50 in test [1] and in test [2] was less than 50 nM in each case.
`COCCNC(C)(C)C=C(C#N)C(=O)Nc1ncc(N2CC(N3CCN(c4ccc5c(c4)-c4nc(N6C(=O)OC[C@H]6C(F)F)cn4CCO5)CC3)C2)cn1` [Compound 302]: the IC50 in test [1] and in test [2] was less than 50 nM each time.
Consider `COCCNC(C)(C)C=C(C#N)C(=O)Nc1ccc(N2CC(N3CCN(c4ccc5c(c4)-c4nc(N6C(=O)OC[C@H]6C(F)F)cn4CCO5)CC3)C2)nn1` [Compound 303], for which the IC50 in test [1] and in test [2] was less than 50 nM in each case.
Consider `CC(C)(C=C(C#N)C(=O)Nc1ccc(N2CC(N3CCN(c4ccc5c(c4)-c4nc(N6C(=O)OC[C@H]6C(F)F)cn4CCO5)CC3)C2)cc1)N1CCN(C2COC2)CC1` [Compound 304], for which the IC50 in test [1] and in test [2] was less than 50 nM in each case.
For `COCCN1CCN(C(C)(C)C=C(C#N)C(=O)Nc2ccc(N3CC(N4CCN(c5ccc6c(c5)-c5nc(N7C(=O)OC[C@H]7C(F)F)cn5CCO6)CC4)C3)cc2)CC1` [Compound 305], the concentration for half-maximal inhibition (IC50) in test [1] and in test [2] was less than 50 nM in each case.
As for `CC(C)(C=C(C#N)C(=O)Nc1ccc(N2CC(N3CCN(c4ccc5c(c4)-c4nc(N6C(=O)OC[C@H]6C(F)F)cn4CCO5)CC3)C2)cc1)N1CCNCC1` [Compound 306], the 50% inhibitory concentration (IC50) in test [1] and in test [2] was less than 50 nM in each case.
Turning to `CN1CCN(C(C)(C)C=C(C#N)C(=O)Nc2ccc(N3CC(N4CCN(c5ccc6c(c5)-c5nc(N7C(=O)OC[C@H]7C(F)F)cn5CCO6)CC4)C3)cc2)CC1` [Compound 307], the IC50 in test [1] and in test [2] was less than 50 nM throughout.
As to `CN1CCN(C(C)(C)C=C(C#N)C(=O)Nc2ccc(N3CC(N4CCN(c5ccc6c(c5)-c5nc(N7C(=O)OC[C@H]7C(F)F)cn5CCO6)CC4)C3)cc2)CC1=O` [Compound 308], the concentration for half-maximal inhibition (IC50) in test [1] and in test [2] was less than 50 nM each time.
Take `CC1CN(C(C)(C)C=C(C#N)C(=O)Nc2ccc(N3CC(N4CCN(c5ccc6c(c5)-c5nc(N7C(=O)OC[C@H]7C(F)F)cn5CCO6)CC4)C3)cc2)CC(C)N1` (some centres unmarked) [Compound 309]: the half-maximal inhibitory concentration (IC50) in test [1] and in test [2] was less than 50 nM throughout.
On to `CC(=O)N1CCN(C(C)(C)C=C(C#N)C(=O)Nc2ccc(N3CC(N4CCN(c5ccc6c(c5)-c5nc(N7C(=O)OC[C@H]7C(F)F)cn5CCO6)CC4)C3)cc2)CC1` [Compound 310], for which the IC50 in test [1] and in test [2] was less than 50 nM in each case.
Turning to `COC(=O)N1CCN(C(C)(C)C=C(C#N)C(=O)Nc2ccc(N3CC(N4CCN(c5ccc6c(c5)-c5nc(N7C(=O)OC[C@H]7C(F)F)cn5CCO6)CC4)C3)cc2)CC1` [Compound 311], the IC50 in test [1] and in test [2] was less than 50 nM in each case.
Turning to `CC(C)(C=C(C#N)C(=O)Nc1ccc(N2CC(N3CCN(c4ccc5c(c4)-c4nc(N6C(=O)OC[C@H]6C(F)F)cn4CCO5)CC3)C2)cc1)N1CCC2(CC1)COC2` [Compound 312], the IC50 in test [1] and in test [2] was less than 50 nM throughout.

(Values after US20260193268A1, “TRICYCLIC PI3Ka INHIBITOR, PREPARATION METHOD THEREFOR, AND PHARMACEUTICAL USE THEREOF” (WIGEN BIOMEDICINE TECHNOLOGY (SHANGHAI) CO., LTD., priority 2022, published 2026).)
